#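 At the GI50, growth is halved. TGI: total growth inhibition.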
# Tests used:
# Assay in all cases: DTP human tumour cell line panel, 384-well format
# K-562 leukemia = tested on: K-562 leukemia
# HCT-15 colon = tested on: HCT-15 colon
# HCT-116 colon = tested on: HCT-116 colon
# OVCAR-3 ovarian = tested on: OVCAR-3 ovarian
# MOLT-4 leukemia = tested on: MOLT-4 leukemia
# PC-3 prostate = tested on: PC-3 prostate
# CCRF-CEM leukemia = tested on: CCRF-CEM leukemia
# ACHN renal = tested on: ACHN renal
# A549 NSCLC = tested on: A549 NSCLC
# MCF7 breast = tested on: MCF7 breast
# SW-620 colon = tested on: SW-620 colon
# SK-MEL-5 melanoma = tested on: SK-MEL-5 melanoma
# HOP-92 NSCLC = tested on: HOP-92 NSCLC
# MDA-MB-435 melanoma = tested on: MDA-MB-435 melanoma
# SF-539 CNS = tested on: SF-539 CNS
# CAKI-1 renal = tested on: CAKI-1 renal
# HT29 colon = tested on: HT29 colon
# UACC-62 melanoma = tested on: UACC-62 melanoma
# LOX IMVI melanoma = tested on: LOX IMVI melanoma
# 786-0 renal = tested on: 786-0 renal
# SK-OV-3 ovarian = tested on: SK-OV-3 ovarian
# UACC-257 melanoma = tested on: UACC-257 melanoma
# MDA-MB-468 breast = tested on: MDA-MB-468 breast
# SNB-75 CNS = tested on: SNB-75 CNS
# A498 renal = tested on: A498 renal
# HOP-62 NSCLC = tested on: HOP-62 NSCLC
# NCI/ADR-RES ovarian = tested on: NCI/ADR-RES ovarian
# BT-549 breast = tested on: BT-549 breast
# OVCAR-8 ovarian = tested on: OVCAR-8 ovarian
# IGROV1 ovarian = tested on: IGROV1 ovarian
# EKVX NSCLC = tested on: EKVX NSCLC
# RPMI-8226 leukemia = tested on: RPMI-8226 leukemia
# OVCAR-4 ovarian = tested on: OVCAR-4 ovarian
# TK-10 renal = tested on: TK-10 renal
# RXF 393 renal = tested on: RXF 393 renal
# MALME-3M melanoma = tested on: MALME-3M melanoma
# DU-145 prostate = tested on: DU-145 prostate
# SK-MEL-2 melanoma = tested on: SK-MEL-2 melanoma
# NCI-H226 lung = tested on: NCI-H226 lung
# M14 melanoma = tested on: M14 melanoma
# COLO 205 colon = tested on: COLO 205 colon
# SNB-19 CNS = tested on: SNB-19 CNS
# NCI-H522 lung = tested on: NCI-H522 lung
# HS 578T breast = tested on: HS 578T breast
# KM12 colon = tested on: KM12 colon
# HL-60(TB) leukemia = tested on: HL-60(TB) leukemia
# HCC-2998 colon = tested on: HCC-2998 colon
# SK-MEL-28 melanoma = tested on: SK-MEL-28 melanoma
# SF-268 CNS = tested on: SF-268 CNS
# U251 glioblastoma = tested on: U251 glioblastoma
# SN12C renal = tested on: SN12C renal
# NCI-H460 NSCLC = tested on: NCI-H460 NSCLC
# NCI-H23 lung = tested on: NCI-H23 lung
# SF-295 CNS = tested on: SF-295 CNS
# NCI-H322M lung = tested on: NCI-H322M lung
smiles,measurement,setting,value
CC(C)N=C(N)/N=C(\N)Nc1ccc2ccc3ccccc3c2c1,GI50,K-562 leukemia,1.89 µM
same,TGI,K-562 leukemia,3.3 µM
same,GI50,HCT-15 colon,1.67 µM
same,TGI,HCT-15 colon,3.07 µM
same,GI50,HCT-116 colon,1.71 µM
same,TGI,HCT-116 colon,3.14 µM
same,GI50,OVCAR-3 ovarian,1.6 µM
same,TGI,OVCAR-3 ovarian,2.95 µM
same,GI50,MOLT-4 leukemia,1.36 µM
same,TGI,MOLT-4 leukemia,2.65 µM
same,GI50,PC-3 prostate,1.52 µM
same,TGI,PC-3 prostate,2.87 µM
same,GI50,CCRF-CEM leukemia,1.44 µM
same,TGI,CCRF-CEM leukemia,2.77 µM
same,GI50,ACHN renal,1.59 µM
same,TGI,ACHN renal,2.95 µM
same,GI50,A549 NSCLC,1.73 µM
same,TGI,A549 NSCLC,3.14 µM
same,GI50,MCF7 breast,0.507 µM
same,TGI,MCF7 breast,1.85 µM
same,GI50,SW-620 colon,1.8 µM
same,TGI,SW-620 colon,3.23 µM
same,GI50,SK-MEL-5 melanoma,1.11 µM
same,TGI,SK-MEL-5 melanoma,2.33 µM
same,GI50,HOP-92 NSCLC,1.56 µM
same,TGI,HOP-92 NSCLC,2.9 µM
same,GI50,MDA-MB-435 melanoma,1.73 µM
same,TGI,MDA-MB-435 melanoma,3.12 µM
same,GI50,SF-539 CNS,1.74 µM
same,TGI,SF-539 CNS,3.13 µM
same,GI50,CAKI-1 renal,1.48 µM
same,TGI,CAKI-1 renal,2.82 µM
same,GI50,HT29 colon,1.71 µM
same,TGI,HT29 colon,3.13 µM
same,GI50,UACC-62 melanoma,1.49 µM
same,TGI,UACC-62 melanoma,2.83 µM
same,GI50,LOX IMVI melanoma,1.56 µM
same,TGI,LOX IMVI melanoma,2.92 µM
same,GI50,786-0 renal,1.75 µM
same,TGI,786-0 renal,3.14 µM
same,GI50,SK-OV-3 ovarian,1.42 µM
same,TGI,SK-OV-3 ovarian,2.73 µM
same,GI50,UACC-257 melanoma,1.48 µM
same,TGI,UACC-257 melanoma,2.82 µM
same,GI50,MDA-MB-468 breast,0.242 µM
same,TGI,MDA-MB-468 breast,1.47 µM
same,GI50,SNB-75 CNS,1.61 µM
same,TGI,SNB-75 CNS,2.96 µM
same,GI50,A498 renal,1.56 µM
same,TGI,A498 renal,2.91 µM
same,GI50,HOP-62 NSCLC,2.07 µM
same,TGI,HOP-62 NSCLC,3.51 µM
same,GI50,NCI/ADR-RES ovarian,10 µM
same,TGI,NCI/ADR-RES ovarian,21.8 µM
same,GI50,BT-549 breast,1.49 µM
same,TGI,BT-549 breast,2.83 µM
same,GI50,OVCAR-8 ovarian,1.7 µM
same,TGI,OVCAR-8 ovarian,3.1 µM
same,GI50,IGROV1 ovarian,1.02 µM
same,TGI,IGROV1 ovarian,2.21 µM
same,GI50,EKVX NSCLC,1.66 µM
same,TGI,EKVX NSCLC,3.06 µM
same,GI50,RPMI-8226 leukemia,1.72 µM
same,TGI,RPMI-8226 leukemia,3.1 µM
same,GI50,OVCAR-4 ovarian,1.3 µM
same,TGI,OVCAR-4 ovarian,2.58 µM
same,GI50,TK-10 renal,1.73 µM
same,TGI,TK-10 renal,3.11 µM
same,GI50,RXF 393 renal,1.58 µM
same,TGI,RXF 393 renal,2.93 µM
same,GI50,MALME-3M melanoma,1.43 µM
same,TGI,MALME-3M melanoma,2.75 µM
same,GI50,DU-145 prostate,1.79 µM
same,TGI,DU-145 prostate,3.23 µM
same,GI50,SK-MEL-2 melanoma,1.84 µM
same,TGI,SK-MEL-2 melanoma,3.24 µM
same,GI50,NCI-H226 lung,1.64 µM
same,TGI,NCI-H226 lung,3.01 µM
same,GI50,M14 melanoma,1.89 µM
same,TGI,M14 melanoma,3.3 µM
same,GI50,COLO 205 colon,1.76 µM
same,TGI,COLO 205 colon,3.16 µM
same,GI50,SNB-19 CNS,1.76 µM
same,TGI,SNB-19 CNS,3.16 µM
same,GI50,NCI-H522 lung,1.56 µM
same,TGI,NCI-H522 lung,2.91 µM
same,GI50,HS 578T breast,1.72 µM
same,TGI,HS 578T breast,3.1 µM
same,GI50,KM12 colon,1.82 µM
same,TGI,KM12 colon,3.25 µM
same,GI50,HL-60(TB) leukemia,1.41 µM
same,TGI,HL-60(TB) leukemia,2.72 µM
same,GI50,HCC-2998 colon,1.4 µM
same,TGI,HCC-2998 colon,2.71 µM
same,GI50,SK-MEL-28 melanoma,1.85 µM
same,TGI,SK-MEL-28 melanoma,3.27 µM
same,GI50,SF-268 CNS,1.87 µM
same,TGI,SF-268 CNS,3.29 µM
same,GI50,U251 glioblastoma,1.79 µM
same,TGI,U251 glioblastoma,3.19 µM
same,GI50,SN12C renal,1.65 µM
same,TGI,SN12C renal,3.02 µM
same,GI50,NCI-H460 NSCLC,1.75 µM
same,TGI,NCI-H460 NSCLC,3.17 µM
same,GI50,NCI-H23 lung,1.53 µM
same,TGI,NCI-H23 lung,2.86 µM
same,GI50,SF-295 CNS,1.65 µM
same,TGI,SF-295 CNS,3.02 µM
same,GI50,NCI-H322M lung,1.84 µM
same,TGI,NCI-H322M lung,3.25 µM
